Laboratory results: patent US20100267031A1, “Method of Screening for RAGE-Amyloid-Beta Peptide Interaction Inhibiting Materials” (priority 2007, published 2010)

Test system: bEND.3 cells
Assay: Comparison of passage through intercellular space (standard materials, with or without mannitol)
Assay type: in vitro ADME, mouse
Conditions: wells treated with mannitol (0.8 M) vs not treated; 20 min intervals over 120 min
Method: The cells were seeded on the inserts of 24-well Transwell plates and cultured for 5 days as described above examples. F—Na (10 μM, Sigma, Cat No. 28803), FD4 (1 mM, Sigma, Cat No. FD4), and FD40 (25 μM, Sigma, Cat No. FD40S), all labeled with fluorescence (FITC), were used as standard materials for intercellular passage comparison. Mannitol (0.8 M), known to interfere with the formation of intercellular tight junctions, was added to some wells while other wells were not treated with mannitol. Thereafter, the standard materials were added to the wells, followed by monitoring the fluorescence intensity in the lower compartment of the Transwell plates at regular intervals of 20 min over 120 min.
F—Na, FD4 and FD40 were 376 Da, 4,000 Da and 40,000 Da in size, respectively. When tight junctions are formed, the materials which can pass between cells are limited by the sizes thereof. Thus, the standard materials may be used as positive or negative controls. For example, when tight junctions are well formed, FD40 differs in passage through intercellular spaces from F—Na and FD4 due to difference in […] size.

Structure (SMILES): O=C([O-])c1ccccc1-c1c2ccc(=O)cc-2oc2cc([O-])ccc12.[Na+].[Na+] [F—Na]
- fluorescence intensity in the lower compartment: higher intensities were detected in the wells treated with mannitol
